Format in all cases: cell-based, human
Assay [1] concerns RPMI-8226. The experiment in a line: NCI60 one-dose screen, RPMI-8226. The settings on record: RPMI-8226 (Leukemia); NCI 60 one-dose, 10^-5 M. Here is the method: (§1) Anti-cancer activity screening of all compounds was performed by the NCI Developmental Therapeutics Program (DTP) through their NCI60 screening initiative. Assay details can be found at the website dtp.cancer.gov/discovery_development/nci-60/methodology.htm. Information from this website is reproduced here for convenience.
(§2) As of early 2007 all compounds submitted to the NCI 60 Cell screen are tested initially at a single high dose (10^-5 M) in the full NCI 60 cell panel. Only compounds which satisfy pre-determined threshold inhibition criteria in a minimum number of cell lines will progress to the full 5-dose assay. The threshold inhibition criteria for progression to the 5-dose screen was selected to efficiently capture compounds with anti-proliferative activity based on careful analysis of historical DTP screening data. The threshold criteria may be updated as additional data becomes available.
(§3) The One-dose data will be reported as a mean graph of the percent growth of treated cells and will be similar in appearance to mean graphs from the 5-dose assay. […]
(§4) Following drug addition, the plates are incubated for an additional 48 h at 37° C., 5% CO2, 95% air, and 100% relative humidity. […] Bound stain is subsequently solubilized with 10 mM trizma base, and the absorbance is read on an automated plate reader at a wavelength of 515 nm. […]

In assay [2] the test system is SR. The experiment in a line: NCI60 one-dose screen, SR. The conditions noted are these: SR (Leukemia); NCI 60 one-dose, 10^-5 M. Here is the method:
as §1, §2, §3, §4

Assay [3] relates to HOP-62. The experiment in a line: NCI60 one-dose screen, HOP-62. The settings on record: HOP-62 (Non-Small Cell Lung Cancer); NCI 60 one-dose, 10^-5 M. Here is the method: as §1, §2, §3, §4
The test system of assay [4] is NCI-H226. Kind of assay: NCI60 one-dose screen, NCI-H226. The settings on record: NCI-H226 (Non-Small Cell Lung Cancer); NCI 60 one-dose, 10^-5 M. Here is the method: as §1, §2, §3, §4
The test system of assay [5] is NCI-H522. The experiment in a line: NCI60 one-dose screen, NCI-H522. The conditions noted are these: NCI-H522 (Non-Small Cell Lung Cancer); NCI 60 one-dose, 10^-5 M. Here is the method:
as §1, §2, §3, §4

In assay [6] the test system is COLO 205. The experiment in a line: NCI60 one-dose screen, COLO 205. The settings on record: COLO 205 (Colon Cancer); NCI 60 one-dose, 10^-5 M. As to the method:
as §1, §2, §3, §4

The test system of assay [7] is HCT-15. Kind of assay: NCI60 one-dose screen, HCT-15. The settings on record: HCT-15 (Colon Cancer); NCI 60 one-dose, 10^-5 M. As to the method:
as §1, §2, §3, §4

The test system of assay [8] is SF-295. Kind of assay: NCI60 one-dose screen, SF-295. The settings on record: SF-295 (CNS Cancer); NCI 60 one-dose, 10^-5 M. As to the method:
as §1, §2, §3, §4

In assay [9] the test system is SNB-75. Kind of assay: NCI60 one-dose screen, SNB-75. The conditions noted are these: SNB-75 (CNS Cancer); NCI 60 one-dose, 10^-5 M. As to the method:
as §1, §2, §3, §4

Assay [10] deals with U251. The experiment in a line: NCI60 one-dose screen, U251. The conditions noted are these: U251 (CNS Cancer); NCI 60 one-dose, 10^-5 M. Here is the method: as §1, §2, §3, §4
Assay [11] concerns LOX IMVI. Kind of assay: NCI60 one-dose screen, LOX IMVI. The conditions noted are these: LOX IMVI (Melanoma); NCI 60 one-dose, 10^-5 M. As to the method: as §1, §2, §3, §4
The test system of assay [12] is IGROV1. The experiment in a line: NCI60 one-dose screen, IGROV1. The conditions noted are these: IGROV1 (Ovarian Cancer); NCI 60 one-dose, 10^-5 M. As to the method:
as §1, §2, §3, §4

In assay [13] the test system is OVCAR-3. The experiment in a line: NCI60 one-dose screen, OVCAR-3. The settings on record: OVCAR-3 (Ovarian Cancer); NCI 60 one-dose, 10^-5 M. Here is the method: as §1, §2, §3, §4
In assay [14] the test system is MDA-MB-231/ATCC. The experiment in a line: NCI60 one-dose screen, MDA-MB-231. The conditions noted are these: MDA-MB-231/ATCC (Breast Cancer); NCI 60 one-dose, 10^-5 M. As to the method: as §1, §2, §3, §4
For assay [15], the system named is BT-549. The experiment in a line: NCI60 one-dose screen, BT-549. The settings on record: BT-549 (Breast Cancer); NCI 60 one-dose, 10^-5 M. As to the method:
as §1, §2, §3, §4

For assay [16], the system named is T-47D. Kind of assay: NCI60 one-dose screen, T-47D. The settings on record: T-47D (Breast Cancer); NCI 60 one-dose, 10^-5 M. As to the method:
as §1, §2, §3, §4

The subject of assay [17] is MDA-MB-468. Kind of assay: NCI60 one-dose screen, MDA-MB-468. The conditions noted are these: MDA-MB-468 (Breast Cancer); NCI 60 one-dose, 10^-5 M. Here is the method: as §1, §2, §3, §4
The subject of assay [18] is NCI60 Cell Line Panel. The experiment in a line: NCI60 one-dose screen, whole panel statistics. The conditions noted are these: mean over the NCI60 cell line panel, 10^-5 M. As to the method: as §1, §2, §3, §4

Consider `CC(=O)N1c2ccccc2NC2=C(C(=O)N(C)C2(C)C)C1c1ccccc1` (stereo not drawn) [NUCC-60872], for which the “Growth Percent” value in assay [1] came out at 12.61%; in [2] it was 16.70%; in [3], 61.59%; in assay [4] it was 91.06%; in assay [5], 18.58%; in assay [6] it was 14.23%. For the same compound, the “Growth Percent” value in assay [7] was 93.83%; in assay [8] it was 45.97%; in assay [9], −3.29%; in assay [10] it was 18.07%; in assay [11] it was 37.52%; in assay [12], 39.64%. The “Growth Percent” value in [13] amounted to 18.09%; in assay [14], 63.32%; in [15] it was 69.46%; in assay [16], 28.72%; in assay [17] it was 19.19%. In [18], the “Growth Percent, Mean” value worked out at 41.43%.

On to `CC(=O)N1c2ccccc2NC2=C(C(=O)N(Cc3ccccc3)C2(C)C)C1c1ccco1` (stereo not drawn) [NUCC-608455], for which the “Growth Percent” value in [1] worked out at 23.43%; in [2] it was 23.29%; in assay [3], 33.09%; in [4], 65.66%; in [5] it was 21.79%; in [6] it was 16.77%. Also, the “Growth Percent” value is on record as 15.65% in assay [7]; −0.75% in [8]; 16.83% in assay [9]; 24.64% in [10]; 25.57% in assay [11]; 26.78% in assay [12]. Further, the “Growth Percent” value in assay [13] is listed as −7.65%; in assay [14], 9.25%; in [15] it was 47.62%; in [16], 35.10%; in [17], −1.86%. Further, in assay [18], the “Growth Percent, Mean” value stood at 23.48%.

The record behind these values is US12252492B2, “Substituted fused pyrrolo-diazepinones and uses thereof” (Northwestern University, priority 2018, dated 2025).
